Data from article PMC11882969 (Nature Communications, 2025).
Where “and” joins values, the source holds several entries; their conditions need not be identical. Equal values may be shown once. Read-outs that look alike come from different tables or passages of the source.

Target: hCB2 (Homo sapiens, UniProt P34972)
Experiment: bioSensAll ebBRET signaling profiling, hCB2
Assay type: cell-based
Design: host or cells: HEK293SL cells, transient PEI transfection
Conditions: for G15 hCB2 / Gq hCB2 / Gs hCB2 / G13 hCB2: raw signal; for EC50: read-out: EC50 [95% CI]; for Emax: normalized to CP-55,940

Sequence of hCB2 (P34972 whole entry): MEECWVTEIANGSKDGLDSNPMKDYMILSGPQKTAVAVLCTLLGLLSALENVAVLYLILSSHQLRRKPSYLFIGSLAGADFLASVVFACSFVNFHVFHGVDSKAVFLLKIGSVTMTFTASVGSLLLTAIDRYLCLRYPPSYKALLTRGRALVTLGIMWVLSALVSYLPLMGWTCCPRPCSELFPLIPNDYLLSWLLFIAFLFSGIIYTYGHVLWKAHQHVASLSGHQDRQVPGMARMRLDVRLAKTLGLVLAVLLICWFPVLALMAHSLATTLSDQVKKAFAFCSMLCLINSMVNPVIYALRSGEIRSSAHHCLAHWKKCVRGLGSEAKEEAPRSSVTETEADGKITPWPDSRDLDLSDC

COC(=O)[C@@](C)(NC(=O)c1cc(C)n(-c2cccc(C(F)(F)F)c2)n1)c1cccs1 [‘1350]
G15 hCB2 (Log [Compound] (M) -5.05788): 909 | Gq hCB2 (Log [Compound] (M) -5.05788): 1907 | Gs hCB2 (Log [Compound] (M) -5.05788): 9135 | G13 hCB2 (Log [Compound] (M) -5.47381): 332 | G15 hCB2 (Log [Compound] (M) -5.47381): 938 | Gq hCB2 (Log [Compound] (M) -5.47381): 1876 | Gs hCB2 (Log [Compound] (M) -5.47381): 8949 | G13 hCB2 (Log [Compound] (M) -5.89285): 339 | G15 hCB2 (Log [Compound] (M) -5.89285): 882 | Gq hCB2 (Log [Compound] (M) -5.89285): 1888 | Gs hCB2 (Log [Compound] (M) -5.89285): 8825 | G13 hCB2 (Log [Compound] (M) -6.31878): 340 | G15 hCB2 (Log [Compound] (M) -6.31878): 867 | Gq hCB2 (Log [Compound] (M) -6.31878): 1817 | Gs hCB2 (Log [Compound] (M) -6.31878): 8693 | G13 hCB2 (Log [Compound] (M) -6.72585): 337 | G15 hCB2 (Log [Compound] (M) -6.72585): 945 | Gq hCB2 (Log [Compound] (M) -6.72585): 1883 | Gs hCB2 (Log [Compound] (M) -6.72585): 8781 | G13 hCB2 (Log [Compound] (M) -7.14267): 379 | G15 hCB2 (Log [Compound] (M) -7.14267): 858 | Gq hCB2 (Log [Compound] (M) -7.14267): 1709 | Gs hCB2 (Log [Compound] (M) -7.14267): 8728 | G13 hCB2 (Log [Compound] (M) -7.55284): 353 | G15 hCB2 (Log [Compound] (M) -7.55284): 904 | Gq hCB2 (Log [Compound] (M) -7.55284): 1791 | Gs hCB2 (Log [Compound] (M) -7.55284): 8935 | G13 hCB2 (Log [Compound] (M) -8): 375 | G15 hCB2 (Log [Compound] (M) -8): 912 | Gq hCB2 (Log [Compound] (M) -8): 1812 | Gs hCB2 (Log [Compound] (M) -8): 8658 | G13 hCB2 (Log [Compound] (M) -8.22186): 364 | G15 hCB2 (Log [Compound] (M) -8.22186): 883 | Gq hCB2 (Log [Compound] (M) -8.22186): 1883 | Gs hCB2 (Log [Compound] (M) -8.22186): 9640 | G13 hCB2 (Log [Compound] (M) -8.39794): 287 | G15 hCB2 (Log [Compound] (M) -8.39794): 753 | Gq hCB2 (Log [Compound] (M) -8.39794): 1844 | Gs hCB2 (Log [Compound] (M) -8.39794): 8340 | G13 hCB2 (Log [Compound] (M) -8.68787): 322 | G15 hCB2 (Log [Compound] (M) -8.68787): 851 | Gq hCB2 (Log [Compound] (M) -8.68787): 1882 | Gs hCB2 (Log [Compound] (M) -8.68787): 8911 | G13 hCB2 (Log [Compound] (M) -9.15521): 356 | G15 hCB2 (Log [Compound] (M) -9.15521): 841 | Gq hCB2 (Log [Compound] (M) -9.15521): 1859 | Gs hCB2 (Log [Compound] (M) -9.15521): 8948 | G13 hCB2 (Log [Compound] (M) -9.61989): 303 | G15 hCB2 (Log [Compound] (M) -9.61989): 888 | Gq hCB2 (Log [Compound] (M) -9.61989): 1906 | Gs hCB2 (Log [Compound] (M) -9.61989): 8984 | G13 hCB2 (Log [Compound] (M) -10.0969): 348 | G15 hCB2 (Log [Compound] (M) -10.0969): 956 | Gq hCB2 (Log [Compound] (M) -10.0969): 1853 | Gs hCB2 (Log [Compound] (M) -10.0969): 9066 | G13 hCB2 (Log [Compound] (M) -10.5529): 333 | G15 hCB2 (Log [Compound] (M) -10.5529): 902 | Gq hCB2 (Log [Compound] (M) -10.5529): 1805 | Gs hCB2 (Log [Compound] (M) -10.5529): 9374 | G13 hCB2 (Log [Compound] (M) -11.0177): 340 | G15 hCB2 (Log [Compound] (M) -11.0177): 939 | Gq hCB2 (Log [Compound] (M) -11.0177): 1690 | Gs hCB2 (Log [Compound] (M) -11.0177): 9100 | G13 hCB2 (Log [Compound] (M) -11.4949): 323 | G15 hCB2 (Log [Compound] (M) -11.4949): 868 | Gq hCB2 (Log [Compound] (M) -11.4949): 1776 | Gs hCB2 (Log [Compound] (M) -11.4949): 8459 | G13 hCB2 (Log [Compound] (M) -11.9208): 343 | G15 hCB2 (Log [Compound] (M) -11.9208): 862 | Gq hCB2 (Log [Compound] (M) -11.9208): 1776 | Gs hCB2 (Log [Compound] (M) -11.9208): 9036 | G13 hCB2 (Log [Compound] (M) -12.3979): 327 | G15 hCB2 (Log [Compound] (M) -12.3979): 871 | Gq hCB2 (Log [Compound] (M) -12.3979): 1850 | Gs hCB2 (Log [Compound] (M) -12.3979): 8912 | G13 hCB2 (Log [Compound] (M) -12.8861): 293 | G15 hCB2 (Log [Compound] (M) -12.8861): 841 | Gq hCB2 (Log [Compound] (M) -12.8861): 1768 | Gs hCB2 (Log [Compound] (M) -12.8861): 8754 | G13 hCB2 (Log [Compound] (M) -13): 352 and 368 | G15 hCB2 (Log [Compound] (M) -13): 772 and 852 | Gq hCB2 (Log [Compound] (M) -13): 1940 and 1790 | Gs hCB2 (Log [Compound] (M) -13): 8891 and 8980 | EC50 (hCB2 Barr2 + GRK2): 4.2 nM | EC50 (hCB2 Gi2): 1.6 nM | EC50 (hCB2 GoB): 2.6 nM | EC50 (hCB2 Gz): 2.6 nM | Emax (read-out: Emax [95% CI], hCB2 Barr2 + GRK2): 30% | Emax (read-out: Emax [95% CI], hCB2 Gi1): 74% | Emax (read-out: Emax [95% CI], hCB2 Gi2): 61% | Emax (read-out: Emax [95% CI], hCB2 GoB): 59% | Emax (read-out: Emax [95% CI], hCB2 Gz): 52%
